Experimental data as given in patent US12714714B2, “Combination therapy for treating executive function disorders” (Anaka Pharmaceuticals, Inc., priority 2021, dated 2026).
Where “and” joins values, the source holds several entries; their conditions need not be identical. Equal values may be shown once.

How the values were obtained:
Severe ADHD = experiment: Case study A: (Example 3); format: in vivo, human
Source text: (§1) The combination of lacosamide and oxcarbazepine has been administered to three additional patients with various symptoms associated with executive function disorder. The combination of lacosamide and oxcarbazepine was successful in alleviating different symptoms of executive function disorder.

[1] = test system: children who take methylphenidate; conditions: cited from earlier work
[2] = test system: patients suffering from ADHD; experiment: Determination of clinically effective dose, lacosamide monotherapy vs combination therapy (Example 1); format: in vivo, human; conditions: for Clinically effective dose of lacosamide: in monotherapy vs in combination therapy with oxcarbazepine
Method: (§2) The effects of lacosamide monotherapy were tested in three patients (two boys; and one child) suffering from ADHD over the period of 6 months. After the period of 6 months, the treatment was discontinued for 45 days. Next, the three patients were treated with a combination of lacosamide and oxcarbazepine for a period of 3 months. The results of monotherapy and combination therapy were compared.
(§3) Patients were monitored clinically every week, during the whole duration of the study. They were also monitored on their pedagogic condition and evolution: before any treatment, mid-term and by the end of the lacosamide monotherapy and combination treatment. In addition, the patients were monitored neuropsychologicaly through the administration of different tests, pre- and post-treatment. A basal measure of their executive capabilities was established before any treatment.
(§4) Initially, a dose of 50 mg/12 hrs of lacosamide was administered to every patient. Through the study, the dose of lacosamide was increased (by 100 mg per week) to […] for every patient, following clinical response (on attention capacity, sleep, tiredness, mood stability, comprehension and general cognitive improvement).
Initially, a dose of 50 mg/12 hrs of lacosamide and a dose of 300 mg/12 hrs of oxcarbazepine was administered to every patient. Through the study, the dose of lacosamide was increased (by 100 mg per week) to 200 mg/12 hrs for every patient, following clinical response (attention capacity, sleep, tiredness, mood stability, comprehension and general cognitive improvement). […] The dose for oxcarbazepine was increased in week 7 to 450 mg/12 hrs for every patient, maintaining the previously reached respective doses for lacosamide.
Starting from this initial dose (50 mg/12 hs), the dose of lacosamide was adjusted to reflect clinically effective dose, based on clinical signs. Lacosamide was initially raised by 100 mg/24 hs in two takes. The highest dose of lacosamide was 400 mg/24 hs. In the combination therapy, oxcarbazepine was raised from 600 mg to 900 mg for all participants after 6 weeks, regardless of their lacosamide dosage.
The final dosage of lacosamide and oxcarbazepine was established based on patients' clinical results for executive dysfunction and the neurophysiological symptoms (e.g. hyperactivity, enuresis, and lethargy).

[3] = test system: patients suffering from ADHD; experiment: Clinical evolution under treatment, weekly clinical and pedagogic monitoring (Example 1); format: in vivo, human
Method: as §2, §3
The treatment was delivered twice a day and went on for at least 3 months.
as §4
Initially, a dose of 50 mg/12 hrs of lacosamide and a dose of 300 mg/12 hrs of oxcarbazepine was administered to every patient. Through the study, the dose of lacosamide was increased (by 100 mg per week) to 200 mg/12 hrs for every patient, following clinical response (attention capacity, sleep, tiredness, mood stability, comprehension and general cognitive improvement). In response to clinical presentation of all three patients, the dose of lacosamide was decreased to 100 mg/12 hrs and maintained thereafter. The dose for oxcarbazepine was increased in week 7 to 450 mg/12 hrs for every patient, maintaining the previously reached respective doses for lacosamide.

[4] = test system: patients suffering from ADHD; experiment: TONI-2 nonverbal reasoning test (Example 1); format: in vivo, human
Source text: as §3
(§5) The results of neuropsychological tests for lacosamide monotherapy and lacosamide and oxcarbazepine combination therapy were evaluated.

[5] = test system: patients suffering from ADHD; experiment: Conners' Continuous Performance Test CPT-2 (Example 1); format: in vivo, human
Source text: as §3
The results of neuropsychological tests for lacosamide monotherapy and lacosamide and oxcarbazepine combination therapy were evaluated. […] The other patient had similar results for monotherapy and combination treatment.

[6] = test system: patients suffering from ADHD; experiment: WCST (Example 1); format: in vivo, human
Source text: as §3, §5

[7] = test system: patients suffering from ADHD; experiment: Stroop test (Example 1); format: in vivo, human
Source text: as §3, §5

[8] = test system: voltage-gated sodium channels; conditions: cited from earlier work
[9] = test system: AMPA, kainate, NMDA, GABAA, GABAB, dopaminergic, serotonergic, adrenergic, muscarinic or cannabinoid receptors; conditions: cited from earlier work
[10] = test system: potassium or calcium currents; conditions: cited from earlier work
[11] = test system: reuptake of norepinephrine, dopamine, and serotonin; conditions: cited from earlier work
GABA transaminase = GABA transaminase (Homo sapiens, UniProt P80404); conditions: cited from earlier work
Severe autism (Level 3) = experiment: Case Study C: (Example 3); format: in vivo, human
Source text: as §1

[12] = patient 001, October 2020 = lacosamide monotherapy, December 2020 = combination therapy
[13] = patient 002, October 2020 = lacosamide monotherapy, December 2020 = combination therapy
[14] = patient 003, October 2020 = after 6 months lacosamide alone, December 2020 = after 3 months combined therapy
[15] = patient 003, table: December 2020, combined therapy, text b168: monotherapy vs combined therapy

Sequence of GABA transaminase (P80404 29-500, species assumed): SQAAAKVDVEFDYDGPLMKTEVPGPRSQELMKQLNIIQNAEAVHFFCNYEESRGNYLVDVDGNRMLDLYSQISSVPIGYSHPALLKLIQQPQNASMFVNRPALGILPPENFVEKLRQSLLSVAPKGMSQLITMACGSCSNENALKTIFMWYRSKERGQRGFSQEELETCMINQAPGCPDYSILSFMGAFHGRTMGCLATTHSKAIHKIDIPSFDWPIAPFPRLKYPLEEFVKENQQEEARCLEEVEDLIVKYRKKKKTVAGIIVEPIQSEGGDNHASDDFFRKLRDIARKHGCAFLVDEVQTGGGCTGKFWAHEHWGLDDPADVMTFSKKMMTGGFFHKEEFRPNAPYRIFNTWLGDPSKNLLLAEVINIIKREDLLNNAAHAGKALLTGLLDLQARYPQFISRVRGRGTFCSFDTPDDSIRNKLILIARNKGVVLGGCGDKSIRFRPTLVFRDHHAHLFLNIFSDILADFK

## Nc1nnc(-c2cccc(Cl)c2Cl)c(N)n1 [Lamotrigine]
Severe ADHD
  Neurophysiological and Neuropsychological symptoms: combined therapy. This was not accomplished
  lasting improvement in treating subject's symptoms, drugs received prior to therapy used in this study: None showed lasting improvement in treating

## COC(=O)C(c1ccccc1)C1CCCCN1 (stereo not drawn) [Methylphenidate]
Severe ADHD
  lasting improvement in treating subject's symptoms, drugs received prior to therapy used in this study: None showed lasting improvement in treating
[1]
  share of children who develop symptoms of obsessive-compulsive behaviour: one third

## CCCC(CCC)C(=O)O [Valproic Acid]
Severe ADHD
  lasting improvement in treating subject's symptoms, drugs received prior to therapy used in this study: None showed lasting improvement in treating

## COC[C@@H](NC(C)=O)C(=O)NCc1ccccc1 [lacosamide, (2R)-2-(acetylamino)-N-benzyl-3-methoxypropanamide]
[2]; 2 patients
  clinically effective dose of lacosamide in monotherapy: 600 mg per day
[2]; Patient 1
  Clinically effective dose of lacosamide: 600 mg/day
[2]; Patient 2
  Clinically effective dose of lacosamide: 600 mg/day
[2]; Patient 3
  Clinically effective dose of lacosamide: 350 mg/day
[2]; one patient
  clinically effective dose of lacosamide in monotherapy: 350 mg
[3]; ADHD patients
  mood instability (aggressive behaviour towards others, deliberately contained anger, sadness): only partially regressed
[3]; Case 001
  cognitive disabilities: improved many cognitive disabilities
  dysphasia, and extreme impulsiveness: remained unchanged
[3]; Case 002
  pedagogic evolution (Comprehensive Reading): never obtained
[3]; Cases 002 and 003
  ability to speak: unaffected
  cognitive disability: improved under lacosamide alone, but the degree of the disability never really disappeared
[3]; the one of 3 ADHD patients with hyperkinesia
  hyperactivity regulation (severe hyperkinesia): did not improve
[3]; the two patients that suffered from this symptom
  enuresis episodes: partially stopped
[3]; two patients with absence of energy and tense tiredness
  lethargic situations: disappeared
[4]; Case 003, after 6 months Lacosamide monotherapy vs after combined therapy
  non-verbal reasoning capacity: 95 points
[4]; [12]
  TONI-2 Nonverbal Reasoning Ability, Level (CI): CI-111
  TONI-2 Nonverbal Reasoning Ability, Severity Range: 17/55
[4]; [13]
  TONI-2 Nonverbal Reasoning Ability, Level (CI): CI-104
  TONI-2 Nonverbal Reasoning Ability, Severity Range: 28/55
[4]; [14]
  TONI-2 Nonverbal Reasoning Ability, Level (CI): CI-95
  TONI-2 Nonverbal Reasoning Ability, Severity Range: 19/55
[5]; [12]
  CPT-2-c Level: 1
  CPT-2-c impulsivity indicators (Severity Range): No
  CPT-2-o Level: Clinical
  CPT-2-o Severity Range, score: 76.92%
  CPT-2-o inattention indicators: 6
  CPT-2-o indicators within limitations in surveillance: 2 indicators
[5]; patient 001, table: December 2020, combination therapy, text b159: first vs second evaluation
  CPT-2-o Actual Interpretation: Severe Impairment
[5]; [13]
  CPT-2-c Level: 2
  CPT-2-c impulsivity indicators (Severity Range): 1 impulsivity
  CPT-2-o Level: Non
  CPT-2-o Severity Range, score: 37.01%
  CPT-2-o inattention indicators: 2 inattention
[5]; [14]
  CPT-2-c Level: 2
  CPT-2-c impulsivity indicators (Severity Range): 1 impulsivity
  CPT-2-o Level: Clinical
  CPT-2-o Severity Range, score: 50%
  CPT-2-o inattention indicators: (6 inattention
[6]; [12]
  WCST Cognitive flexibility, Level: 1
  WCST Cognitive flexibility, persistent errors: 24 persistent
  WCST Reasoning (Abstraction Categorization), Level: 2
  WCST Reasoning (Abstraction Categorization), categories completed: 3 categories
[6]; [13]
  WCST Cognitive flexibility, Level: 0
  WCST Cognitive flexibility, persistent errors: 5 persistent
  WCST Reasoning (Abstraction Categorization), Level: 0
  WCST Reasoning (Abstraction Categorization), categories completed: 8 categories
[6]; [14]
  WCST Cognitive flexibility, Level: 2
  WCST Cognitive flexibility, persistent errors: 23 persistent
  WCST Reasoning (Abstraction Categorization), Level: 2
  WCST Reasoning (Abstraction Categorization), categories completed: 4 categories
[6]; [15]
  WCST Cognitive flexibility, interpretation: Slight
  WCST Reasoning (Abstraction Categorization), interpretation: Slight Impairment
[7]; [12]
  Stroop-c Level: 1
  Stroop-c Nominative capacity, Severity Range: 43/100
  Stroop-c/p Level: 1
  Stroop-c/p Resistance to Perseveration, Severity Range: 18/100
  Stroop-p Level: 2
  Stroop-p Nominative capacity, Severity Range: 51 and 51/100
[7]; patient 001, table: December 2020, combination therapy, text b160: before vs after
  Stroop-p Actual Interpretation: Slight Impairment
[7]; [13]
  Stroop-c Level: 3
  Stroop-c Nominative capacity, Severity Range: 40/100
  Stroop-c/p Level: 2
  Stroop-c/p Resistance to Perseveration, Severity Range: 30/100
  Stroop-p Level: 4
  Stroop-p Nominative capacity, Severity Range: 32/100
[7]; [14]
  Stroop-c Level: 2
  Stroop-c Nominative capacity, Severity Range: 51/100
  Stroop-c/p Level: 3
  Stroop-c/p Resistance to Perseveration, Severity Range: 21/100
  Stroop-p Level: 3
  Stroop-p Nominative capacity, Severity Range: 51/100
[8]
  fast inactivation of voltage-gated sodium channels: without affecting
  slow inactivation of voltage-gated sodium channels: enhances
[9]
  effect on AMPA, kainate, NMDA, GABAA, GABAB or dopaminergic, serotonergic, adrenergic, muscarinic or cannabinoid receptors: does not affect
[10]
  block of potassium or calcium currents: does not block
[11]
  modulation of the reuptake of neurotransmitters including norepinephrine, dopamine, and serotonin: does not modulate
GABA transaminase
  inhibition of GABA transaminase: does not inhibit

## NC(=O)N1c2ccccc2CC(=O)c2ccccc21 [oxcarbazepine, 5-oxo-6H-benzo[b][1]benzazepine-11-carboxamide]
Severe autism (Level 3)
  aggressive behavior and lack of interactivity with other members of the household: attention. They maintained aggressive
  delivery of the desired therapeutic result: Oxcarbazepine alone was not sufficient to
  hyperkinesia and impulsiveness: Minor improvement to subject's hyper-
  sleeping pattern: instability remained in sleeping pattern
  way they behaved during awake moments, quality of their day's attention: not approve in the way they behaved during
